Reference: PMC9699089 (Pathogens, 2022)
Where two headings read alike, the source gives them in different places.

Columns and labels:
[1] = system: FPf1T (DNA, G4) GGGTTTAGGGTTTAGGGTTTAGGG; assay: FRET melting; conditions: 10 mM KCl, 90 mM LiCl; 10 mM lithium cacodylate pH 7.2; 0.2 µM oligonucleotide, 2 µM compound
[2] = system: FPf8T (DNA, G4) GGGTTCAGGGTTCAGGGTTCAGGG; assay: FRET melting; conditions: 10 mM KCl, 90 mM LiCl; 10 mM lithium cacodylate pH 7.2; 0.2 µM oligonucleotide, 2 µM compound
[3] = system: FtrypBT (FEBR1T) (DNA, G4) GGGCAGGGGGTGATGGGGAGGAGCCAGGG; assay: FRET melting; conditions: 10 mM KCl, 90 mM LiCl; 10 mM lithium cacodylate pH 7.2; 0.2 µM oligonucleotide, 2 µM compound
[4] = system: F21T (DNA, G4) GGGTTAGGGTTAGGGTTAGGG; assay: FRET melting; conditions: 10 mM KCl, 90 mM LiCl, 10 mM lithium cacodylate pH 7.2, 0.2 µM oligonucleotide
[5] = system: FdxT (DNA, hairpin, hexaethyleneglycol linker between position 10 and 11) TATAGCTATATATAGCTATA; assay: FRET melting; conditions: 10 mM KCl, 90 mM LiCl, 10 mM lithium cacodylate pH 7.2, 0.2 µM oligonucleotide
[6] = system: Pf1 (DNA, G4) GGGTTTAGGGTTTAGGGTTTAGGG; assay: native ESI-MS; conditions: 1 mM KCl, 100 mM TMAA, 10 µM oligonucleotide; for Kd1: 20 µM ligand
[7] = system: Pf8 (DNA, G4) GGGTTCAGGGTTCAGGGTTCAGGG; assay: native ESI-MS; conditions: 1 mM KCl, 100 mM TMAA, 10 µM oligonucleotide, 20 µM ligand
[8] = system: 24TTG (DNA, G4) TTGGGTTAGGGTTAGGGTTAGGGA; assay: native ESI-MS; conditions: 1 mM KCl, 100 mM TMAA, 10 µM oligonucleotide; for Kd1: 20 µM ligand
[9] = system: 24nonG4 (DNA, single strand) TGGGATGCGACAGAGAGGACGGGA; assay: native ESI-MS; conditions: 1 mM KCl; 100 mM TMAA; 10 µM oligonucleotide; no binding detected at 20 µM ligand
[10] = system: DK66 (DNA, duplex) CGCGAATTCGCG; assay: native ESI-MS; conditions: 1 mM KCl; 100 mM TMAA; 10 µM oligonucleotide; no binding detected at 20 µM ligand
[11] = system: Plasmodium falciparum CQ-resistant strain W2; assay: In vitro antiplasmodial activity, SYBR Green I fluorescence-based method, strain W2; format: cell-based; conditions: read-out: P. falciparum Strains IC50 Values W2
Method: (§1) The in vitro antiplasmodial activities were tested over concentrations ranging from 39 nM to 40 µM against culture-adapted Plasmodium falciparum reference strains 3D7 and W2. […] These two strains are obtained from the collection of the National Museum of Natural History (Paris, France). The parasites were cultivated in RPMI medium (Sigma Aldrich, Lyon, France) supplemented with 0.5% Albumax I (Life Technologies Corporation, Paisley, UK), hypoxanthine (Sigma Aldrich), and gentamicin (Sigma Aldrich) with human erythrocytes and were incubated at 37 °C in a candle jar, as described previously. The P. falciparum drug susceptibility test was carried out in 96-well flat bottom sterile plates in a final volume of 250 µL. After 48 h incubation period with the drugs, quantities of DNA in treated and control cultures of parasites in human erythrocytes were quantified using the SYBR Green I (Sigma Aldrich) fluorescence-based method. Briefly, after incubation, plates were frozen at -20 °C until use. Plates were then thawed for 2 h at room temperature, and 100 µL of each homogenized culture was transferred to a well of a 96-well flat bottom sterile black plate (Nunc, Inc.) that contained 100 µL of the SYBR Green I lysis buffer (2xSYBR Green, 20 mM Tris base pH 7.5, 5 mM EDTA, 0.008% w/v saponin, 0.08% w/v Triton X-100). […] Plates were incubated for 1 h at room temperature and then read on a fluorescence plate reader (Tecan, Austria) using excitation and emission wavelengths of 485 and 535 nm, respectively.

[12] = system: Plasmodium falciparum CQ-sensitive strain 3D7; assay: In vitro antiplasmodial activity, SYBR Green I fluorescence-based method, strain 3D7; format: cell-based; conditions: read-out: P. falciparum Strains IC50 Values 3D7
Method: as §1

[13] = system: Plasmodium telomeric sequence FPf1T G-quadruplex; assay: FRET melting assay, FPf1T; format: binding, Plasmodium falciparum; conditions: oligonucleotide 0.2 μM, K+ conditions
[14] = system: Plasmodium telomeric sequence FPf8T G-quadruplex; assay: FRET melting assay, FPf8T; format: binding, Plasmodium falciparum; conditions: oligonucleotide 0.2 μM, K+ conditions
[15] = system: human telomeric sequence F21T G-quadruplex; assay: FRET melting assay, F21T; format: binding; conditions: oligonucleotide 0.2 μM, K+ conditions
[16] = system: L. donovani (MHOM/IN/00/DEVI) promastigotes; assay: In vitro antileishmanial activity on promastigotes, MTT assay; format: cell-based; conditions: Leishmania donovani, 72 h incubation, mean +/- SD of three independent experiments
Method: L. donovani (MHOM/IN/00/DEVI) used in this study was provided by the CNR Leishmania (Montpellier, France). The effects of the tested compounds on the growth of L. donovani (MHOM/IN/00/DEVI) promastigotes were assessed by MTT assay. Briefly, promastigotes in log-phase in Schneider’s medium supplemented with 20% fetal calf serum (FCS), 2 mM L-glutamine and antibiotics (100 U/mL penicillin and 100 µg/mL streptomycin), were incubated at an average density of 10^6 parasites/mL in sterile 96-well plates with various concentrations of compounds previously dissolved in DMSO (final concentration less than 0.5% v/v), in duplicate. […] Duplicate assays were performed for each sample. After the 72 h incubation period at 27 °C, parasite metabolic activity was determined. Each well was microscopically examined for precipitate formation. To each well was added 10 µL of 10 mg/mL MTT [3-(4,5-dimethylthiazol-2-yl)-2,5-diphenyltetrazolium bromide)] solution followed by 4 h incubation time. The enzyme reaction was stopped by addition of 100 µL of 50% isopropanol/10% sodium dodecyl sulfate. Plates were vigorously shaken (300 rpm) for 10 min, and the absorbance was measured at 570 nm with 630 nm as reference wavelength in a BIOTEK ELx808 Absorbance Microplate Reader (Agilent Technologies, Les Ulis, France). […] IC50 of the parasite’s growth (half maximal inhibitory concentration or IC50 values) were then calculated from the obtained experimental results using a previously described regression program. IC50 values were calculated from three independent experiments.

[17] = system: T. brucei brucei AnTat 1.9; assay: In vitro antitrypanosomal activity, Alamar Blue assay; format: cell-based, Trypanosoma brucei brucei
Method: The effects of the tested compounds on the growth of T. brucei brucei were assessed using an Alamar Blue® assay described by Räz et al. T. brucei brucei AnTat 1.9 ([…], Belgium) was cultured in MEM with Earle's salts, supplemented according to the protocol of Baltz et al. […] All doses were tested in duplicate. Appropriate controls treated with solvents 0.9% NaCl or DMSO or with suramin, pentamidine, eflornithine, and fexinidazole (reference drugs purchased from Sigma Aldrich and Fluorochem, UK) were added to each set of experiments. After 69 h incubation period at 37 °C, 10 μL of the viability marker Alamar Blue (Fisher) was added to each well, and the plates were incubated for 5 h. The plates were read in a PerkinElmer ENSPIRE (Germany) microplate reader using an excitation wavelength of 530 nm and an emission wavelength of 590 nm.

human HepG2 cells = assay: Cytotoxicity evaluation, MTT assay; format: cell-based; conditions: HepG2 cells; 72 h; mean +/- SD of three independent experiments
Method: These cells are a commonly used human hepatocarcinoma-derived cell line that has characteristics similar to those of primary hepatocytes. These cells express many hepatocyte-specific metabolic enzymes, thus enabling the cytotoxicity of tested product metabolites to be evaluated. […] Duplicate assays were performed for each sample. Each well was microscopically examined for precipitate formation before the medium was aspirated from the wells. After aspiration, 100 µL of MTT solution (0.5 mg/mL in medium without FCS) were then added to each well. […] The MTT solution was removed, and DMSO (100 µL) was added to dissolve the resulting blue formazan crystals. Plates were shaken vigorously (300 rpm) for 5 min. The absorbance was measured at 570 nm with 630 nm as reference wavelength in a BIO-TEK ELx808 Absorbance Microplate Reader. DMSO was used as blank and doxorubicin (Sigma Aldrich) as positive control. Cell viability was calculated as percentage of control (cells incubated without compound). The CC50 was determined from the dose-response curve using TableCurve 2D V5.0 software (Systat Software, Palo Alto, CA, USA).

[18] = system: Trypanosoma 9 and 11 chromosomic sequence FTrypBT (FEBR1T) G-quadruplex; assay: FRET melting assay, FtrypBT; format: binding, Trypanosoma brucei brucei; conditions: tested at 0.5 μM, oligonucleotide 0.2 μM, K+ conditions
Method: These were performed with dual-labeled oligonucleotides mimicking the Plasmodium telomeric sequences FPf1T [FAM-5′(GGGTTTA)3-GGG3′-TAMRA] and FPf8T [FAM-5′(GGGTTCA)3GGG3′-TAMRA], the Trypanosoma 9 and 11 chromosomic sequence FTrypBT (also named FEBR1T) [FAM-5′[…]3′-TAMRA], the human telomeric sequence F21T [FAM-(GGGTTA)3-GGG3′-TAMRA] and the human duplex sequence FdxT [FAM5′-[…]-hexaethyleneglycol-[…]3′-TAMRA] [27, 31, 47]. The oligonucleotides were pre-folded in 10 mM lithium cacodylate buffer (pH 7.2), with 10 mM KCl and 90 mM LiCl (K^+ condition). The FAM emissions were recorded at 516 nm using a 492-nm excitation wavelength in the absence and presence of a single compound as a function of temperature (25 to 95 °C) in 96-well microplates using a Stratagene MX3000P real-time PCR device at a rate of 1 °C∙min-1. Data were normalized between 0 and 1, and the required temperature for half-denaturation of oligonucleotides corresponding to the emission value of 0.5 was taken as the Tm. Each experiment was performed in duplicate with 0.2 µM of labeled oligonucleotide and 2 µM of compound under K^+ condition. For each compound, three independent experiments were carried out.

[19] = system: human duplex sequence FdxT; assay: FRET melting assay, duplex control FdxT; format: binding; conditions: tested at 0.5 μM, oligonucleotide 0.2 μM, K+ conditions
[20] = no binding detected at 20 µM ligand

## CN(C)CCCCCNCc1cc(-c2ccccc2)c2ccc3c(-c4ccccc4)cc(CNCCCCCN(C)C)nc3c2n1
[1]
  ΔTm: 18.8 ± 0.2 °C
[2]
  ΔTm: 20.5 ± 0.2 °C
[3]
  ΔTm: 14.7 ± 0.7 °C
[4]; 2 µM compound
  ΔTm: 18.1 ± 0.9 °C
[5]; 2 µM compound
  ΔTm: 1.8 ± 0.2 °C
[6]; site 1 of 2 (Kd2 24 µM)
  Kd1: 8 µM
[7]; site 1 of 2 (Kd2 16 µM)
  Kd1: 3 µM
[8]; site 1 of 2 (Kd2 62 µM)
  Kd1: 38 µM

## CN(C)CCCCNCc1cc(-c2ccccc2)c2ccc3c(-c4ccccc4)cc(CNCCCCN(C)C)nc3c2n1
[7]; site 1 of 2 (Kd2 50 µM)
  Kd1: 3 µM
[8]; site 1 of 2 (Kd2 28 µM)
  Kd1: 44 µM

## c1ccc(-c2cc(CNCCCN3CCCC3)nc3c2ccc2c(-c4ccccc4)cc(CNCCCN4CCCC4)nc23)cc1
[5]; 2 µM compound
  ΔTm: 0.7 ± 0.2 °C
[6]; site 1 of 2 (Kd2 37 µM)
  Kd1: 10 µM
[7]; site 1 of 2 (Kd2 59 µM)
  Kd1: 2 µM
[8]; site 1 of 2 (Kd2 18 µM)
  Kd1: 34 µM

## c1ccc(-c2cc(CNCCc3ccccn3)nc3c2ccc2c(-c4ccccc4)cc(CNCCc4ccccn4)nc23)cc1
[1]
  ΔTm: 1.3 ± 0.2 °C
[2]
  ΔTm: 1.0 ± 0.2 °C
[3]
  ΔTm: 1.8 ± 0.6 °C
[4]; 2 µM compound
  ΔTm: 1.0 ± 0.5 °C
[6]; [20]
  binding: no
[7]
  Kd1: 83 µM
[8]; [20]
  binding: no
[9]
  binding: no
[10]
  binding: no

## CCN(CC)CCCC(C)Nc1ccnc2cc(Cl)ccc12 (centres unmarked) [CQ, chloroquine]
[11]; W2, 48 h
  IC50: 400 ± 40 nM
[12]; 3D7, 48 h
  IC50: 110 ± 10 nM
[13]; tested at 1 μM
  ΔTm FPf1T: 1.9 °C
[14]; tested at 1 μM
  ΔTm FPf8T: 2.4 °C
[15]; tested at 1 μM
  ΔTm F21T: 2.4 °C

## OC(c1cc(C(F)(F)F)nc2c(C(F)(F)F)cccc12)C1CCCCN1 (centres unmarked) [MQ, mefloquine]
[11]; CQ-resistant strain W2, 48 h incubation, mean of three independent experiments
  IC50: 16 ± 2 nM
[12]; CQ-sensitive strain 3D7, 48 h incubation, mean of three independent experiments
  IC50: 60 ± 3 nM
[13]; tested at 1 μM
  ΔTm FPf1T: 3.1 °C
[14]; tested at 1 μM
  ΔTm FPf8T: 6.6 °C
[15]; tested at 1 μM
  ΔTm F21T: 2.6 °C

## N=C(N)c1ccc(OCCCCCOc2ccc(C(=N)N)cc2)cc1 [Pentamidine, reference compound]
[16]
  IC50: 5500 ± 800 nM
[17]; SI = CC50 HepG2 / IC50 Trypanosoma brucei brucei
  Selectivity Index HepG2/Tryp.: 11,500
[17]; Trypanosoma brucei, slender bloodstream trypomastigotes, AnTat 1.9 strain, mean +/- SD of three independent experiments, read-out: Trypanosoma brucei brucei IC50 Values Trypanos Antat 1.9
  IC50: 0.2 ± 0.06 nM
Human HepG2 cells
  CC50: 2300 ± 500 nM

## C[n+]1cc(NC(=O)c2ccc3ccc4ccc(C(=O)Nc5cc6ccccc6[n+](C)c5)nc4c3n2)cc2ccccc21 [PhenDC3]
[18]
  ΔTm FtrypBT: 19.2 °C
[4]; 0.5 µM compound
  ΔTm: 26.3 ± 0.1 °C
[5]; 0.5 µM compound
  ΔTm: 0.1 ± 0.2 °C
[13]; tested at 0.5 μM
  ΔTm FPf1T: 24.6 °C
[14]; tested at 0.5 μM
  ΔTm FPf8T: 24.7 °C
[15]; tested at 0.5 μM
  ΔTm F21T: 26.3 °C
[19]
  ΔTm FdxT: 0.1 °C
